According to patent publication US8952024B2, “Herbicidal pyrimidone derivatives” (E I du Pont de Nemours and Company, priority 2009, dated 2015):

Columns and labels:
Type in all cases: in vivo
[1] = test system: bermudagrass (Cynodon dactylon); assay: Test B pre-/postemergence plant response; details: for Plant response rating, Bermudagrass: Postemergence
In short: (§1)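 Response scores were assigned visually after 13 to 15 days in a greenhouse, comparing treated pots with controls on a 0–100 scale where 100 denotes complete control. Preemergence treatments went onto freshly seeded loam/sand soil; postemergence treatments onto plants 2 to 18 cm tall.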

[2] = test system: blackgrass (Alopecurus myosuroides); assay: Test B pre-/postemergence plant response; details: for Plant response rating, Blackgrass: Postemergence
In short: as §1

[3] = test system: cocklebur (Xanthium strumarium); assay: Test B pre-/postemergence plant response
In short: as §1

corn (Zea mays) = assay: Test B pre-/postemergence plant response; details: for Plant response rating, Corn: Postemergence
In short: as §1

[4] = test system: giant foxtail (Setaria faberii); assay: Test B pre-/postemergence plant response; details: for Plant response rating, Foxtail, Giant: Postemergence
In short: as §1

[5] = test system: johnsongrass (Sorghum halepense); assay: Test B pre-/postemergence plant response; details: for Plant response rating, Johnsongrass: Postemergence
In short: as §1

kochia (Kochia scoparia) = assay: Test B pre-/postemergence plant response; details: for Plant response rating, Kochia: Postemergence
In short: as §1

[6] = test system: morningglory (Ipomoea coccinea); assay: Test B pre-/postemergence plant response; details: for Plant response rating, Morningglory: Postemergence
In short: as §1

soybean (Glycine max) = assay: Test B pre-/postemergence plant response; details: for Plant response rating, Soybean: Postemergence
In short: as §1

wild oat (Avena fatua) = assay: Test B pre-/postemergence plant response; details: for Plant response rating, Oat, Wild: Postemergence
In short: as §1

[7] = test system: canarygrass (Phalaris minor); assay: Test B postemergence plant response; details: for Plant response rating, Canarygrass: Postemergence
In short: (§2)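 Visual ratings from 0 (no effect) to 100 (complete control), made against controls 13–15 days after treatment, kept in a greenhouse. Compounds were applied postemergence to potted plants at the 1- to 4-leaf stage (2–18 cm).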

[8] = test system: chickweed (Stellaria media); assay: Test B postemergence plant response; details: for Plant response rating, Chickweed: Postemergence
In short: as §2

[9] = test system: windgrass (Apera spica-venti); assay: Test B postemergence plant response; details: for Plant response rating, Windgrass: Postemergence
In short: as §2

[10] = test system: winter barley (Hordeum vulgare); assay: Test B postemergence plant response; details: for Plant response rating, Barley: Postemergence
In short: as §2

[11] = 62 g ai/ha, postemergence, 0 is no effect, 100 is complete control, 13 to 15 days
[12] = 31 g ai/ha, 0 to 100 scale (0 no effect, 100 complete control)
[13] = 125 g ai/ha, scale 0 to 100 (0 no effect, 100 complete control)
[14] = 250 g ai/ha, scale 0 to 100 (0 no effect, 100 complete control), 13 to 15 days

CCCCn1c(-c2cccc(Cl)c2)ncc(C(=O)C2=C(O)CCCC2=O)c1=O [Compound 146]
Bermudagrass plant response rating (0 to 100 scale) [1, 11]: 90
Plant response rating, Bermudagrass [1, 12]: 85
Plant response rating, Bermudagrass [1, 13]: 100
Plant response rating, Bermudagrass [1, 14]: 100
Blackgrass plant response rating (0 to 100 scale) [2, 11]: 30
Plant response rating, Blackgrass [2, 12]: 5
Plant response rating, Blackgrass [2, 13]: 35
Plant response rating, Blackgrass [2, 14]: 50
Cocklebur plant response rating (0 to 100 scale) [3, 11]: 25
Plant response rating, Cocklebur ([3]; Postemergence, 31 g ai/ha, 0 to 100 scale (0 no effect, 100 complete control)): 10
Corn plant response rating (0 to 100 scale) (corn (Zea mays); [11]): 5
Plant response rating, Corn (corn (Zea mays); [12]): 0
Plant response rating, Corn (corn (Zea mays); [13]): 20
Plant response rating, Corn (corn (Zea mays); [14]): 35
Foxtail, Giant plant response rating (0 to 100 scale) [4, 11]: 85
Plant response rating, Foxtail, Giant [4, 12]: 75
Plant response rating, Foxtail, Giant [4, 13]: 95
Plant response rating, Foxtail, Giant [4, 14]: 98
Johnsongrass plant response rating (0 to 100 scale) [5, 11]: 45
Plant response rating, Johnsongrass [5, 12]: 45
Plant response rating, Johnsongrass [5, 13]: 70
Plant response rating, Johnsongrass [5, 14]: 95
Kochia plant response rating (0 to 100 scale) (kochia (Kochia scoparia); [11]): 45
Plant response rating, Kochia (kochia (Kochia scoparia); [12]): 40
Plant response rating, Kochia (kochia (Kochia scoparia); [13]): 85
Plant response rating, Kochia (kochia (Kochia scoparia); [14]): 90
Morningglory plant response rating (0 to 100 scale) [6, 11]: 15
Plant response rating, Morningglory [6, 12]: 0
Plant response rating, Morningglory [6, 13]: 85
Plant response rating, Morningglory [6, 14]: 95
Soybean plant response rating (0 to 100 scale) (soybean (Glycine max); [11]): 85
Plant response rating, Soybean (soybean (Glycine max); [12]): 70
Plant response rating, Soybean (soybean (Glycine max); [13]): 98
Plant response rating, Soybean (soybean (Glycine max); [14]): 100
Oat, Wild plant response rating (0 to 100 scale) (wild oat (Avena fatua); [11]): 20
Plant response rating, Oat, Wild (wild oat (Avena fatua); [12]): 0
Plant response rating, Oat, Wild (wild oat (Avena fatua); [13]): 50
Plant response rating, Oat, Wild (wild oat (Avena fatua); [14]): 70
Canarygrass plant response rating (0 to 100 scale) [7, 11]: 0
Plant response rating, Canarygrass [7, 12]: 0
Plant response rating, Canarygrass [7, 13]: 5
Plant response rating, Canarygrass [7, 14]: 10
Chickweed plant response rating (0 to 100 scale) [8, 11]: 95
Plant response rating, Chickweed [8, 12]: 70
Plant response rating, Chickweed [8, 13]: 98
Plant response rating, Chickweed [8, 14]: 98
Windgrass plant response rating (0 to 100 scale) [9, 11]: 50
Plant response rating, Windgrass [9, 12]: 45
Plant response rating, Windgrass [9, 13]: 60
Plant response rating, Windgrass [9, 14]: 60
Barley plant response rating (0 to 100 scale) [10, 11]: 0
Plant response rating, Barley [10, 12]: 0
Plant response rating, Barley [10, 13]: 15
Plant response rating, Barley [10, 14]: 30
